Measurements published in patent publication US5236927A, “Anti-cancer quinazoline derivatives” (National Research Development Corporation, priority 1985, dated 1993).
Several values for one entry are separate records, joined by “and”; a condition that tells them apart may be missing. Equal entries are not always repeated. Where two headings read alike, the source gives them in different places.

Key:
[1] = tested on: de novo thymidylate synthesis in L1210 cells; experiment: Incorporation of 3H dUrd into acid-precipitable material in L1210 cells; format: cell-based; details: Mus musculus, L1210, 10 min; 10 uM, by about 10 minutes
Protocol: L1210 cells were used at a concentration of 10^5 /ml. Incubation at 37° C. was in complete RPMI tissue culture medium plus or minus drugs for the lengths of time indicated on the graphs. After this time ^3 H dUrd was added at a concentration of 2 uCi/ml (about 0.2 uM). Three 1 ml aliquots were removed after 20 minutes, placed on ice and mixed with 1 ml of ice-cold phosphate buffered saline (PBS). Precipitation onto glass-fibre discs was performed by trichloroacetic acid washing followed by PBS. […] This is an indirect measurement of de novo thymidylate synthesis in whole cells. […] These concentrations are 10 times the ID50 values.

[2] = Pharmacokinetics in rats; details: 100 mg/kg 1 h i.v. infusion; for concentration: read-out: Plasma levels
Protocol: (§2) During and after the infusion blood and bile samples were collected. Four hours after the experiment the rats were sacrificed and the urine collected from the bladder and the liver and kidneys removed.
(§3) Samples of plasma were also analysed for alanine transaminase.

[3] = Comparative pharmacokinetics in the mouse (plasma, liver, kidney levels); format: in vivo; details: for concentration at 3 h / concentration at 6 h: plasma, ip, read-out: Plasma quinazoline conc.
Protocol: 3 Hours and 6 hours after administration groups of three mice at each dose level were sacrificed by exsanguination via cardiac puncture. Plasma was prepared and the livers and kidneys excised and weighed.

[4] = tested on: alanine transaminase; experiment: Comparative hepatotoxicity in the mouse (plasma alanine transaminase); format: in vivo
Protocol: […]. Plasma was prepared and the livers and kidneys excised and weighed.
Samples of plasma were also analysed for the enzyme alanine transaminase, an indicator of hepatotoxicity. […]

[5] = tested on: L1210 cells; experiment: Reversal of L1210 toxicity by co-incubation with thymidine; format: cell-based
Protocol: Cells in the log phase of growth were diluted to about 5×10^4 /ml and duplicate 5ml aliquots were added to 50 ml tissue culture flasks containing the appropriate additions (diluted in RPMI and sterilised by Millipore filtration). Cell counts after 48 hours of incubation were obtained by Coulter counting.

[6] = tested on: L1210 tumour; experiment: Treatment of L1210 tumour-bearing mice; format: in vivo, mouse
Protocol: (§1) The L1210 tumour is carried routinely in DBA2 mice at the Institute of Cancer Research (L1210/CBRI). For experiments 5×10^4 cells were implanted i.p. into male C57Bl×DBA2 F1 hybrid mice 3 days prior to treatment. […] The control group consisted of 9 mice and treated groups 6 or 7 mice.

[7] = tested on: alanine transaminase; experiment: Hepatotoxicity in rats (plasma alanine transaminase); details: 100 mg/kg 1 h i.v. infusion
Protocol: as §2, §3

[8] = tested on: L1210/C15 cells; experiment: L1210/C15 cell culture growth inhibition (overproduces TS 45-fold); format: cell-based; details: 48 hours; at 100 uM
Protocol: Cell counts after 48 hours of incubation were obtained by Coulter counting.

[9] = tested on: alanine transaminase; details: rat, in vivo
Protocol: as §2, §3

[10] = Urinary and faecal elimination in the mouse; format: in vivo; details: 100 mg/kg i.p.; for dose excreted at 48 h: ip, 0-48 h
[11] = Toxicity and weight loss in treated L1210 tumour-bearing mice; format: in vivo, mouse
Protocol: as §1

[12] = 100 mg/kg i.p., 3 h post-treatment
[13] = 100 mg/kg i.p., 6 h post-treatment
[14] = 300 mg/kg i.p., 3 h post-treatment
[15] = 300 mg/kg i.p., 6 h post-treatment
[16] = 500 mg/kg i.p., 3 h post-treatment
[17] = 500 mg/kg i.p., 6 h post-treatment
[18] = compound 5 uM + 10 uM thymidine

For `C#CCN(Cc1ccc2nc[nH]c(=O)c2c1)c1ccc(C(=O)N[C@@H](CCC(=O)O)C(=O)O)cc1` [CB3804, N-(4-(N-((3,4-dihydro-4-oxo-6-quinazolinyl)methyl)prop-2-ynylamino)benzoyl)-L-glutamic acid], the activity at 10 µM [1] was under 20%, the “detection in liver or kidneys at the end of the experiment” value ([2]; rats) was “no CB3804 could be detected” and the Kidney level ([2]; individual rats) was under 0.5 % dose. The Liver level ([2]; individual rats) was under 0.5 % dose, the Cumulative biliary excretion ([2]; individual rats, 100 mg/kg) was 80 % dose and the Cumulative urinary excretion ([2]; individual rats, 100 mg/kg) was 7 % dose. It also gave a dose excreted ([2]; rat, bile, iv, 100 mg/kg, Cumulative biliary excretion, individual rats) of 72%, a concentration at 1 h ([2]; rat, plasma, iv, 100 mg/kg, Plasma levels, end inf, individual rats) of 274 µM and a concentration at 2 h ([2]; rat, plasma, iv, 100 mg/kg, Plasma levels, inf + 1 h, individual rats) of 10 µM. For the same compound, the concentration at 3 h ([2]; rat, plasma, iv, 100 mg/kg, Plasma levels, inf + 2 h, individual rats) was under 2 µM, the concentration at 4 h ([2]; rat, plasma, iv, 100 mg/kg, Plasma levels, inf + 3 h, individual rats) was under 2 µM and the concentration at 5 h ([2]; rat, plasma, iv, 100 mg/kg, Plasma levels, inf + 4 h, individual rats) was under 2 µM. It also gave a concentration at 0.5 h ([2]; rat, plasma, iv, 100 mg/kg, Plasma levels, mid inf, individual rats) of 275 µM, a dose excreted ([2]; rat, urine, iv, 100 mg/kg, Cumulative urinary excretion, individual rats) of 11% and a concentration ([2]; end inf, individual rats, 100 mg/kg, 60 min) of 256 µM. For the same compound, the concentration ([2]; inf + 1 h, individual rats, 120 min, 100 mg/kg, 120 min) was 19 µM, the concentration ([2]; inf + 2 h, individual rats, 180 min) was under 2 µM and the concentration ([2]; inf + 3 h, individual rats, 240 min) was under 2 µM. For the same compound, the concentration ([2]; inf + 4 h, individual rats, 300 min) was under 2 µM, the concentration ([2]; mid inf, individual rats, 30 min, 100 mg/kg, 30 min) was 258 µM and the Kidney quinazoline level [3, 12] was under 0.1 % dose administered. For the same compound, the Liver quinazoline level [3, 12] was under 0.1 % dose administered, the Kidney quinazoline level [3, 13] was under 0.1 % dose administered and the Liver quinazoline level [3, 13] was under 0.1 % dose administered. For the same compound, the Kidney quinazoline level [3, 14] was under 0.03 % dose administered, the Liver quinazoline level [3, 14] was under 0.03 % dose administered and the Kidney quinazoline level [3, 15] was under 0.03 % dose administered. The Liver quinazoline level [3, 15] was under 0.03 % dose administered, the Kidney quinazoline level [3, 16] was under 0.1 % dose administered and the Liver quinazoline level [3, 16] was under 0.2 % dose administered. For the same compound, the Kidney quinazoline level [3, 17] was under 0.1 % dose administered, the Liver quinazoline level [3, 17] was under 0.2 % dose administered and the “detection in plasma, liver and kidneys” value ([3]; mice, 3 and 6 hours after i.p. dose, for CB3804 except plasma 3 h at 500 mg/kg) was “below the limit of detection”. The “accumulation in the kidneys” value ([3]; mouse, in vivo) was “does not apparently accumulate in the kidneys”, the concentration at 3 h ([3]; mouse, 100 mg/kg i.p., 3 h post-treatment) was under 5 µM and the concentration at 6 h ([3]; mouse, 100 mg/kg i.p., 6 h post-treatment) was under 5 µM. For the same compound, the concentration at 3 h ([3]; mouse, 300 mg/kg i.p., 3 h post-treatment) was under 5 µM, the concentration at 6 h ([3]; mouse, 300 mg/kg i.p., 6 h post-treatment) was under 5 µM and the concentration at 3 h ([3]; mouse, 500 mg/kg i.p., 3 h post-treatment) was 5 µM. The concentration at 6 h ([3]; mouse, 500 mg/kg i.p., 6 h post-treatment) was under 5 µM, the “Plasma alanine transaminase level” value [4, 12] was 19 ± 3 U/L and the “Plasma alanine transaminase level” value [4, 13] was 10 ± 6 U/L. The “Plasma alanine transaminase level” value [4, 14] was 10 ± 4 U/L, the “Plasma alanine transaminase level” value [4, 15] was 8 ± 3 U/L and the “Plasma alanine transaminase level” value [4, 16] was 16 ± 3 U/L. The “Plasma alanine transaminase level” value [4, 17] was 16 ± 2 U/L, the “Levels of alanine transaminase (in words)” value ([4]; mice i.p., normal range 5-25U/l) was “within the normal range” and the hepatotoxicity ([4]; mice, at the doses studied) was “not hepatotoxic”. For the same compound, the “Cell count at 48 hours as % control” value [5, 18] was 98 % control, the “Reversal of L1210 toxicity by thymidine” value [5, 18] was “reversal was complete” and the “Cell count at 48 hours as % control” value ([5]; compound 50 uM + 10 uM thymidine) was 75 % control. The anti-tumour effectiveness ([6]; 25 mg/kg i.p. daily ×5, versus other treatments) was “much less effective”, the “"cures" (survived >100 days)” value ([6]; 50 mg/kg i.p. daily ×5) was “about 65%” and the “"cures" (survived >100 days)” value ([6]; 100 mg/kg i.p. daily ×5) was “about 80%”. For the same compound, the “anti-tumour activity compared with CB3717” value ([6]; in vivo) was “comparable anti-tumour activity”, the “plasma levels of alanine transaminase (in words)” value ([7]; rats) was “did not” and the “Peak plasma alanine transaminase” value ([7]; individual rats) was 57 % pre treatment and 143 % pre treatment. For the same compound, the “L1210/C15 ID50” value [8] was “no inhibition”, the hepatotoxicity [9] was “not hepatotoxic” and the “bioavailability following i.p. administration” value [10] was “satisfactory bioavailability”. For the same compound, the “components in faeces which may represent metabolites” value [10] was “two components were observed in faeces”, the dose excreted at 48 h ([10]; faeces, read-out: Faecal excretion of the parent compound) was 15 ± 13% and the dose excreted at 48 h ([10]; urine, read-out: Urinary excretion of the parent compound) was 4 ± 1%. The signs of toxicity ([11]; 200 mg/kg i.p. daily ×5) was “no obvious signs of toxicity”, the weight loss ([11]; 200 mg/kg i.p. daily ×5) was “no weight loss occurred” and the signs of toxicity ([11]; dose levels up to 200 mg/kg) was “No signs of toxicity were apparent”.
